Laboratory results published in patent US6143780A, “N-arylmethylthioanilide compounds useful for the inhibition of the replication of HIV” (Uniroyal Chemical Company, Inc., priority 1999, dated 2000).
Several values for one entry are separate records, joined by “and”; a condition that tells them apart may be missing. Equal entries are not always repeated. Where two headings read alike, the source gives them in different places.

What was measured:
Type in all cases: cell-based
HIV-1 (IIIB) = assay: inhibition of HIV-1(IIIB) (WT) induced syncytium formation in CEM cells
Excerpt: (§1) CEM cells were obtained from the American Tissue Cell Culture Collection (Rockville, Md.) . HIV-1 (IIIB) was originally obtained from the culture supernatant of persistently HIV-1-infected H9 cells and was provided by R. C. Gallo and M. Popovic (National Cancer Institute, National Institutes of Health, Bethesda, Md.).
(§2) CEM cells were suspended at ≈300,000 cells per ml of culture medium and infected with approximately 100 CCID50 (CCID50 being the 50% cell culture infective dose) of HIV-1(IIIB) (designated as "WT" in Table 3) or one of the HIV-1 RT mutant strains described above. Then 100 μl of the infected cell suspensions was added to 200 μl microtiter plate wells containing 100 μl of appropriate serial (5-fold) dilutions of the test compounds. The inhibitiory effect of the test compounds on HIV-1 induced syncytium formation in CEM cells was examined microscopically on day 4 post infection. The 50% effective concentration (EC50) was defined as the test compound concentration that inhibits syncytium formation in the HIV-1-infected cell cultures by 50%.

HIV-1/100-Ile = assay: inhibition of syncytium formation in CEM cells, HIV-1 RT mutant 100-Ile; conditions: Human immunodeficiency virus 1, CCRF-CEM, 96 h, read-out: EC50 100-Ile
Excerpt: as §1
(§3) The selection and characterization of the HIV-1 RT mutant strains were done as follows: HIV-1/100-Ile ("100-Ile") was selected for resistance against TIBO R82150 as described in Balzarini et al, Virology 192: 246-253 (1993); HIV-1/103-Asn ("103-Asn") was selected for resistance against TIBO R82913 as described in Balzarini et al, Virology 192: 246-253 (1993); HIV-1/106-Ala ("106-Ala") was selected for resistance against nevirapine as described in Balzarini et al, J. Virol. 67: 5353-5359 (1993); HIV-1/Lys-138 ("Lys-138") was selected for resistance against TSAO-m^3T as described in Balzarini et al, Virology 192: 246-253 (1993) and Balzarini et al, Proc. Nat. Acad. Sci. USA 90: 6952-6956 (1993); HIV-1/181-Cys ("181-Cys") was selected for resistance against pyridinone L-697,661 as described in Balzarini et al, Virology 192: 246-253 (1993); and HIV-1/188-His ("188-His") was selected for resistance against HEPT as described in Balzarini et al, Mol. Pharmocol. 44: 694-701 (1993). 188-His was then further converted to HIV-1/188-Leu ("188-Leu") upon further passage in cell culture in the absence of the HEPT. HIV-1/101-Glu ("101-Glu") and HIV-1/190-Glu ("190-Glu") were selected for resistance against the thiocarboxanilide derivative designated as UC38 as described in Balzarini et al, Antiviral Research 27: 219-236 (1995). HIV-1/184-Ile ("184-Ile") was selected for resistance against the combination of 3TC and TSAO-m^3 T as described in Balzarini et al, Molecular Pharm. 49: 882-890 (1996). HIV-1/184-Val ("184-Val") was selected for resistance against 3TC as described in Balzarini et al, Molecular Pharm. 49: 882-890 (1996).
as §2

HIV-1/101-Glu = assay: inhibition of syncytium formation in CEM cells, HIV-1 RT mutant 101-Glu; conditions: Human immunodeficiency virus 1, CCRF-CEM, 96 h, read-out: EC50 101-Glu
Excerpt: as §1, §3, §2

103-Ala = assay: inhibition of syncytium formation in CEM cells, HIV-1 RT mutant 103-Ala; conditions: Human immunodeficiency virus 1, CCRF-CEM, 96 h, read-out: EC50 103-Ala
138-Lys = assay: inhibition of syncytium formation in CEM cells, HIV-1 RT mutant 138-Lys; conditions: Human immunodeficiency virus 1, CCRF-CEM, 96 h, read-out: EC50 138-Lys
Excerpt: as §1, §3, §2

HIV-1/181-Cys = assay: inhibition of syncytium formation in CEM cells, HIV-1 RT mutant 181-Cys; conditions: Human immunodeficiency virus 1, CCRF-CEM, 96 h, read-out: EC50 181-Cys
Excerpt: as §1, §3, §2

HIV-1/184-Ile = assay: inhibition of syncytium formation in CEM cells, HIV-1 RT mutant 184-Ile; conditions: Human immunodeficiency virus 1, CCRF-CEM, 96 h, read-out: EC50 184-IIe
Excerpt: as §1, §3, §2

HIV-1/184-Val = assay: inhibition of syncytium formation in CEM cells, HIV-1 RT mutant 184-Val; conditions: Human immunodeficiency virus 1, CCRF-CEM, 96 h, read-out: EC50 184-Val
Excerpt: as §1, §3, §2

HIV-1/188-His = assay: inhibition of syncytium formation in CEM cells, HIV-1 RT mutant 188-His; conditions: Human immunodeficiency virus 1, CCRF-CEM, 96 h, read-out: EC50 188-His
Excerpt: as §1, §3, §2

HIV-1/190-Glu = assay: inhibition of syncytium formation in CEM cells, HIV-1 RT mutant 190-Glu; conditions: Human immunodeficiency virus 1, CCRF-CEM, 96 h, read-out: EC50 190-Glu
Excerpt: as §1, §3, §2

[1] = Table 2, day 4 post infection, replicate values, read-out: EC50, Activity Against HIV-1 (IIIB)
[2] = Human immunodeficiency virus 1, IIIB, CCRF-CEM, 96 h, Table 2, day 4 post infection, replicate values, read-out: EC50, Activity Against HIV-1 (IIIB)

| SMILES | EC50 (HIV-1 (IIIB); [1]) | also measured |
| --- | --- | --- |
| Cc1occc1C(=O)Nc1ccc(Cl)c(COc2ccccc2)c1 [Compound 1] | 2380 nM and 1550 nM and 4810 nM |  |
| Cc1occc1C(=S)Nc1ccc(Cl)c(COc2ccccc2)c1 [Compound 2] | 228 nM and 161 nM and 98.6 nM and 67.6 nM |  |
| Cc1occc1C(=S)Nc1ccc(Cl)c(COc2cccc(C(F)(F)F)c2)c1 [Compound 5] | 4110 nM and 3840 nM | EC50 (HIV-1 (IIIB); [2]): 3880 nM; EC50 (HIV-1 (IIIB); Human immunodeficiency virus 1, IIIB, CCRF-CEM, 96 h, Table 3, HIV-1(IIIB), day 4 post infection, read-out: EC50 WT): 0.5 µg/mL; EC50 (HIV-1/100-Ile): > 2 µg/mL; EC50 (HIV-1/101-Glu): > 2 µg/mL; EC50 (103-Ala): > 2 µg/mL; EC50 (138-Lys): 1.73 µg/mL; EC50 (HIV-1/181-Cys): 0.33 µg/mL; EC50 (HIV-1/184-Ile): > 2 µg/mL; EC50 (HIV-1/184-Val): 0.93 µg/mL; EC50 (HIV-1/188-His): > 2 µg/mL; EC50 (HIV-1/190-Glu): > 2 µg/mL |
| Cc1occc1C(=O)Nc1ccc(Cl)c(COc2ccc(F)cc2)c1 [Compound 10] | 4260 nM | EC50 (HIV-1 (IIIB); [2]): 4150 nM |
| Cc1occc1C(=O)Nc1ccc(Cl)c(COc2c(F)cccc2F)c1 [Compound 20] | 799 nM | EC50 (HIV-1 (IIIB); [2]): 496 nM |
| Cc1occc1C(=O)Nc1ccc(Cl)c(COc2cccc([N+](=O)[O-])c2)c1 [Compound 26] | 4140 nM and 3660 nM | EC50 (HIV-1 (IIIB); [2]): 4610 nM |
| COc1cccc(OC)c1OCc1cc(NC(=S)c2ccoc2C)ccc1Cl [Compound 28] | 6710 nM and 7560 nM and 19600 nM and 10100 nM and 11000 nM |  |
| COc1cccc(F)c1OCc1cc(NC(=O)c2ccoc2C)ccc1Cl [Compound 31] | 77.8 nM and 124 nM and 213 nM |  |
| CC(=O)Oc1ccccc1OCc1cc(NC(=S)c2ccoc2C)ccc1Cl [Compound 33] | 1390 nM and 2830 nM and 2670 nM |  |
| CCOc1ccccc1OCc1cc(NC(=S)c2ccoc2C)ccc1Cl [Compound 36] | 377 nM and 124 nM and 788 nM |  |
| Cc1occc1C(=O)Nc1ccc(Cl)c(COc2c(F)ccc(F)c2F)c1 [Compound 39] | 102 nM and 50.7 nM and 113 nM |  |
| Cc1occc1C(=O)Nc1ccc(Cl)c(COc2ccc(F)cc2Cl)c1 [Compound 42] | 4660 nM and 18200 nM |  |
| Cc1occc1C(=S)Nc1ccc(Cl)c(COc2ccccc2-c2ccccc2)c1 [Compound 48] | 3110 nM and 2750 nM and 5410 nM |  |
| Cc1occc1C(=S)Nc1ccc(Cl)c(COc2ccccc2C(C)(C)C)c1 [Compound 49] | 384 nM and 599 nM and 1130 nM |  |
| CCON=Cc1ccccc1OCc1cc(NC(=S)c2ccoc2C)ccc1Cl [Compound 50] | 1070 nM |  |
| COC(=O)c1ccccc1OCc1cc(NC(=S)c2ccoc2C)ccc1Cl [Compound 51] | 1000 nM and 226 nM and 915 nM and 568 nM |  |
| CC(=O)c1ccccc1OCc1cc(NC(=S)c2ccoc2C)ccc1Cl [Compound 54] | 6670 nM and 15300 nM |  |

More lines, main results first:

| EC50 (HIV-1 (IIIB); [1]) | SMILES | also measured |
| --- | --- | --- |
| 13500 nM and 35000 nM | Cc1ccccc1OCc1cc(NC(=O)c2ccoc2C)ccc1Cl [Compound 9] |  |
| 488 nM and 379 nM and 899 nM | COc1ccccc1OCc1cc(NC(=O)c2ccoc2C)ccc1Cl [Compound 12] |  |
| 301 nM and 208 nM and 358 nM | Cc1occc1C(=O)Nc1ccc(Cl)c(COc2ccccc2[N+](=O)[O-])c1 [Compound 13] |  |
| 771 nM and 395 nM and 255 nM | Cc1occc1C(=O)Nc1ccc(Cl)c(COc2ccccc2F)c1 [Compound 14] |  |
| 3480 nM and 3400 nM and 3100 nM and 3760 nM | Cc1occc1C(=O)Nc1ccc(Cl)c(COc2ccccc2C#N)c1 [Compound 29] | EC50 (HIV-1 (IIIB); [2]): 3390 nM |
| 2290 nM and 3140 nM and 1230 nM | Cc1occc1C(=O)Nc1ccc(Cl)c(COc2ccccc2Br)c1 [Compound 35] |  |
| 2880 nM and 1450 nM | CCc1ccccc1OCc1cc(NC(=O)c2ccoc2C)ccc1Cl [Compound 38] |  |
| 761 nM and 1110 nM | Cc1occc1C(=O)Nc1ccc(Cl)c(COc2ccccc2C(F)(F)F)c1 [Compound 41] |  |
| 13700 nM and 16200 nM | Cc1occc1C(=O)Nc1ccc(Cl)c(COc2ccccc2N)c1 [Compound 52] |  |
